Assay results reported in patent US7160508B2, “Personal care products having elastomeric portions” (The Gillette Company, priority 2001, dated 2007).
In brackets after ≈: the same amount, converted by molar mass.

Assay: Minimum inhibitory concentration (agar plate dilution, molds)
Assay type: cell-based
Details: 168 h; lowest concentration in sterile water and agar with no growth visible to the naked eye after 7 days at 27±2° C.
Text: Preferred antimicrobial agents will inhibit mold growth at relatively low concentrations of antimicrobial agent, i.e., preferred antimicrobial agents will have a low “minimum inhibitory concentration” (MIC), measured as parts per million (ppm) concentration in sterile water and agar using the test procedure discussed below. If the MIC is high, a high concentration of antimicrobial agent will generally be necessary in order to obtain sufficient antifungal activity, resulting in increased cost and a potential adverse affect on the properties of the elastomeric material. For example, high concentrations of antifungal agent may tend to increase the hardness of the thermoplastic elastomer. Preferred antimicrobial agents have an MIC of less than about 100 ppm.
Minimum inhibitory concentration is measured by diluting the antimicrobial agent in sterile water to obtain a plurality of solutions having a range of concentrations. 1 ml of each of the solutions is added to 9 ml portions of molten agar to give a final volume of 10 ml, and immediately poured to form plates. […] The plates are incubated at 27±2° C. and analyzed for growth at 3, 5 and 7 days. […]

MIC: ~50 mg/L (≈ 177 µM)
Compound: CCCCCCCCn1sc(Cl)c(Cl)c1=O [4,5-dichloro-2-n-octyl-4-isothiazolin-3-one]
